Measured values reported in patent US20250333419A1, “BICYCLIC COMPOUNDS AS INHIBITORS OF WRN” (Incyte Corporation, priority 2023, published 2025).

Assays:
WRN [1] = target: T1, WRN (Homo sapiens, UniProt Q14191); experiment: WRN ATPase activity assay (ADP-Glo); assay type: biochemical; details: IC50, 1-hr pre-incubation with enzyme; geometric means of at least 2 independent replicates
T1 construct: A His-tagged construct of WRN (AA S2-S1235) was produced and used for the ATPase assay; His; made in house; host or cells: Sf9 insect cells (baculovirus)
Procedure: Compounds of the Examples were tested for WRN ATPase activity. WRN ATPase activity catalyzes ATP hydrolysis to produce ADP and phosphate. DNA encoding the target protein, 6×HIS-TEV-WRN-517-945, was produced, cloned and transfected as detailed in Example D. The amount of ADP produced was measured using ADP-Glo™ Kinase Assay kit from Promega Corporation in a Greiner white regular volume 384 wells assay plate (Greiner #781075). Data was normalized to a standard curve generated using various ADP concentrations and the corresponding luminescent signal intensities at each concentration. The assay conditions were optimized for enzyme concentration (WRN), substrate concentrations (ATP & dsDNA), and the linearity of the ATPase reaction, in the following assay buffer: 50 mM Tris-HCl, pH-7.5, 2 mM MgCl2, 50 mM NaCl, 1 mM EGTA, 0.01% P-20, 0.05% BSA, and 2 mM DTT prepared with nuclease free water.
A serial dilution (1:3 scheme) of the compounds were prepared in neat DMSO, with 100 nL of the compounds dispensed in the 384 wells assay plate. An 1-hr pre-incubation of the compounds with enzyme was included. A His-tagged construct of WRN (AA S2-S1235) was produced and used for the ATPase assay. Maximum inhibition control wells were set up with the addition of only assay buffer, and no inhibition control wells were set up with neat DMSO without test compounds. The reaction was initiated by addition of 5 μL substrate mix (200 μM ultrapure ATP, and 50 nM dsDNA prepared in assay buffer) and incubated at 25° C. for 35 min. A forked dsDNA oligomer substrate was prepared by annealing equal amounts of oligo GPat-1 ([BHQ2][…]) and oligo GPat-2 ([…][TAM]) and was used as dsDNA substrate for WRN ATPase assay. A typical ATPase reaction consists of 25 nM forked dsDNA, 100 μM ATP, and 1 nM WRN prepared in assay buffer. The WRN ATPase reaction was stopped by the addition of 5 μL of ADP-Glo Reagent from ADP-Glo™ Kinase Assay kit and incubated for 40 min to deplete the unreacted ATP. Afterwards, 5 μL of Kinase Detection Reagent from the ADP-Glo™ Kinase Assay kit was added and incubated for 1 hr for the development of luminescence signal.
Luminesce signals were measured on BMG PHERAstar FSX using luminescence protocol. Data analysis was carried out using Genedata software following % of control normalization. Fitting parameters include dose response IC50, Hill slope (n), maximum inhibition (S∞), and minimum inhibition (S0). The reported IC50 values for compounds in this invention are the geometric means of at least 2 independent replicates.

WRN [2] = target: T1, WRN; experiment: WRN Helicase activity assay (fluorescence DNA unwinding); assay type: biochemical; details: IC50, 1-hr pre-incubation with enzyme; geometric means of at least 2 independent replicates
Procedure: Compounds of the examples were tested for WRN helicase activity. DNA encoding the target protein, 6×HIS-TEV-WRN-517-945, was produced, cloned and transfected as detailed in Example D. To determine the inhibitory properties of the compounds, a 384 wells plate-based Helicase assay was set up to measure the extent of DNA unwinding (Helicase) activity of WRN. The WRN Helicase assay was designed to measure increase in fluorescence signal using a fluorescence based, donor-quencher paired forked dsDNA oligomer substrate (custom synthesis from Sigma-Aldrich) prepared by annealing equal amounts of oligo GPat-1 ([BHQ2][…]) and oligo GPat-2 ([…][TAM]). Continuous measurement of fluorescent signal was used to optimize the buffer conditions, concentration of enzyme (WRN), concentration of substrates (ATP & dsDNA), and the linearity of the Helicase reaction. All solutions were prepared in the following assay buffer: 50 mM Tris-HCl, pH-7.5, 2 mM MgCl2, 50 mM NaCl, 1 mM EGTA, 0.01% P-20, 0.05% BSA, and 2 mM DTT prepared with nuclease free water.
A serial dilution (1:3 scheme) of the compounds was prepared in neat DMSO and 100 nL of the compounds was dispensed in the Greiner black low volume (Greiner #784076) 384 wells assay plate. An 1-hr pre-incubation of the compounds with enzyme was included. A His-tagged construct of WRN (AA S2-S1235) was produced and used for the ATPase assay. Maximum inhibition control wells were set up with the addition of only assay buffer, and no inhibition control wells were set up with neat DMSO without test compounds. The reaction was initiated by addition of 5 μL substrate mix (200 μM ultrapure ATP, and 50 nM dsDNA prepared in assay buffer) and incubated at 25° C. for 35 min. A typical Helicase reaction consists of 25 nM forked dsDNA, 100 μM ATP, and 1 nM WRN prepared in assay buffer. The WRN Helicase reaction was quenched by the addition of 5 μL ‘STOP’ solution containing 100 mM EDTA (final EDTA concentration 33.33 mM) prepared in assay buffer. The plates were read on BMG PHERAstar FSX using 540/590 module to measure an increase of fluorescence. Data analysis was carried out using the Genedata software following % of control normalization. Fitting parameters include dose response IC50, Hill slope (n), maximum inhibition (S∞), and minimum inhibition (S0). The reported IC50 values for compounds in this invention are the geometric means of at least 2 independent replicates.

WRN helicase [3] = target: T2, WRN helicase (Homo sapiens, UniProt Q14191); experiment: ATPase assay on WRN helicase (ADP-Glo) with varied preincubation times; assay type: biochemical
T2 construct: His-tagged WRN construct used for biochemical characterization (aa S2-S1235); His; made in house; host or cells: Sf9 insect cells (baculovirus)
Procedure: An ATPase assay on WRN helicase was performed using ADP-Glo and IC50 values were determined by varying the compound of Example 1 preincubation times (FIG. 1). […] In FIG. 1, 0 hrs is represented by bottom dotted line; 1 hour is represented by the broken line with two bullets; 2 hrs is represented by solid line; and 4 hrs is represented by top dashed line.

WRN Cys727Ala = target: T3, WRN Cys727Ala (Homo sapiens, UniProt Q14191, C727A); experiment: ATPase assay on WRN Cys727Ala mutant, without preincubation; assay type: biochemical
T3 construct: Point mutations were made in the His-tagged WRN construct used for biochemical characterization (aa S2-S1235); His; made in house
Procedure: (§1) Point mutations were made in the His-tagged WRN construct used for biochemical characterization (aa S2-S1235). Cysteine 580 (Walker A motif), 727 (linker), 864 (Domain 2 Å) and 1041 (RQC domain) were each mutated to both Serine and Alanine using site directed mutagenesis, for a total of eight mutants. Purified proteins were assayed in both helicase and ATPase assays. Cys580 mutation to either Ser or Ala abolished all activity, consistent with Walker A motif cysteine function. Cys864 (D2) mutation to alanine and Cys1041 (RQC domain) had no significant impact on helicase or ATPase activity. Cys727 abolished helicase activity (Table 6), whether it was mutated to Ala or Ser. ATPase activity for Cys727 mutants was reduced but not abolished (Table 7). Table 6 is the panel of the nine variant WRN helicase proteins that were screen using a flourscence-based DNA unwinding assay with an increase in flourscence intensity indicating DNA unwinding. Table 7 is the panel of the nine variant WRN helicase proteins that were screened using ADP-Glo assay to measure DNA stimulated ATPase activity, with an increase in luminescence indicating ATP hydrolysis.
(§2) From FIG. 2, the top line represented WT. […] The mutant experiments were performed without preincubation.

WRN Cys727Ser = target: T4, WRN Cys727Ser (Homo sapiens, UniProt Q14191, C727S); experiment: ATPase assay on WRN Cys727Ser mutant, without preincubation; assay type: biochemical
T4 construct: Point mutations were made in the His-tagged WRN construct used for biochemical characterization (aa S2-S1235); His; made in house
Procedure: as §1, §2

WRN helicase [4] = experiment: Intact mass spectrometry and peptide mapping of covalent modification; assay type: binding
Procedure: The intact WRN helicase has an observed mass of 67,573.1 Da (theoretical mass of 67,409.4 Da). The WRN helicase incubated with the compound of Example 1 has an observed mass of 68,164.5 (theoretical mass of 1:1 adduct 68,000 Da). The shift in the observed mass between intact WRN and WRN incubated with the compound of Example 1 is equivalent to the theorectical mass of the compound of Example 1 (592.2 Da). […] The mass spectrometry results, combined with the ATPase assay results established that covalently targeting Cys727 is and effective and tractable way to inhibit both the ATPase and helicase activities of WRN.

T2 sequence (Q14191 2-1235): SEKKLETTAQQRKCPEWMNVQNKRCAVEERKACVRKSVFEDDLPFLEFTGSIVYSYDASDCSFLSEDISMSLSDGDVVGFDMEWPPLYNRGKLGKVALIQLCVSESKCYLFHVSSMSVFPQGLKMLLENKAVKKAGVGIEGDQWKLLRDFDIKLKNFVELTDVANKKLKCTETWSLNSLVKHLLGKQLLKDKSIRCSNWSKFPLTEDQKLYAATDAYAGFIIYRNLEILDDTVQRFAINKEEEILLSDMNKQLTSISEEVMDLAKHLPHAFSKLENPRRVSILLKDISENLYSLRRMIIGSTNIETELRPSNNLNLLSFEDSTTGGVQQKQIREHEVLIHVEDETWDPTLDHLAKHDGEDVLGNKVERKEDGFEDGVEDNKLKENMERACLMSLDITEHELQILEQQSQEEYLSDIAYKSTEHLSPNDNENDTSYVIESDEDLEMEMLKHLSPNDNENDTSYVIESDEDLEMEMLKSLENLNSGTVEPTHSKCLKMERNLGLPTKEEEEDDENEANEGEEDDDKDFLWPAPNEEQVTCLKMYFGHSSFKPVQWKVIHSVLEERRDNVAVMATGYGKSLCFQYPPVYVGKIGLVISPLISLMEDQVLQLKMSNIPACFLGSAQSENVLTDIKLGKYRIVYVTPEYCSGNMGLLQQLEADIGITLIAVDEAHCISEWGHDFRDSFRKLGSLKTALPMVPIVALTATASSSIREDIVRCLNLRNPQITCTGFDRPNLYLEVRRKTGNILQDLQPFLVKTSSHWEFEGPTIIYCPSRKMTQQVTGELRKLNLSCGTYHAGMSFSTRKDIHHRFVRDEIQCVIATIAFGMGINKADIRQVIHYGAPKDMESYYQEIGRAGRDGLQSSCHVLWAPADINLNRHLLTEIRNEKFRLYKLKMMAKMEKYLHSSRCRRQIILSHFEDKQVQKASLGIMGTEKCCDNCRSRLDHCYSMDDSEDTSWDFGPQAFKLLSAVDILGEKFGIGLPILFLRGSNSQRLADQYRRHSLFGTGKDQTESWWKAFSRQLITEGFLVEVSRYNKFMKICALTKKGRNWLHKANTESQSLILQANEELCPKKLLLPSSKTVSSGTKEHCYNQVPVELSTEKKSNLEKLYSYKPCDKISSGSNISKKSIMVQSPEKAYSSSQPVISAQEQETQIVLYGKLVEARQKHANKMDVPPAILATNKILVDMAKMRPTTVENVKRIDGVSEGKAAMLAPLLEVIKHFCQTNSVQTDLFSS
T3 sequence (Q14191 2-1235 C727A): as the sequence (Q14191 2-1235) above, with C726A counted along it
T1 sequence (Q14191 2-1235): as the sequence (Q14191 2-1235) above
T4 sequence (Q14191 2-1235 C727S): as the sequence (Q14191 2-1235) above, with C726S counted along it

IC50 (WRN [1]): < 100 nM | IC50 (WRN [2]): < 100 nM | IC50 (WRN helicase [3]; preincubation 1 hour): 24 nM | IC50 (WRN helicase [3]; preincubation 2 hrs): 12 nM | IC50 (WRN helicase [3]; preincubation 4 hrs): 8 nM | IC50 (WRN helicase [3]; without preincubation): 449 nM | fold shift relative to WT (WRN Cys727Ala; Cys727Ala vs WT, without preincubation): 13 fold | IC50 (WRN Cys727Ala; Cys727Ala, without preincubation): 5820 nM | effect of Cys 727 mutation on potency (WRN Cys727Ala; FIG. 2, Cys727Ala and Cys727Ser): reduces the potency | IC50 (WRN Cys727Ser; Cys727Ser): 38500 nM | fold shift relative to WT (WRN Cys727Ser; Cys727Ser vs WT): 86 fold | adduct formation with WRN helicase (WRN helicase [4]; intact mass spectrometry): 1:1 adduct
Compound: C=CC(=O)Nc1ccccc1-c1c(CC)n(CC(=O)Nc2ccc(C(F)(F)F)cc2)c2nc(C3=CCOCC3)nn2c1=O [Example 1, N-(2-(2-(3,6-Dihydro-2H-pyran-4-yl)-5-ethyl-7-oxo-4-(2-oxo-2-((4-(trifluoromethyl)phenyl)amino)ethyl)-4,7-dihydro-[1,2,4]triazolo[1,5-a]pyrimidin-6-yl)phenyl)acrylamide]
time dependence of inhibition (WRN helicase [3]; FIG. 1): inhibits WRN helicase in a time dependent manner | residue modified (WRN helicase [4]; peptide mapping analysis): Cys727 is the only residue to be modified
